Assay results published in ChEMBL document CHEMBL1130492 (Bioorg Med Chem Lett, 1997).

Columns and labels:
[1] = species on record: Canis familiaris; assay: Percent of radioactive dose in urine and feces excreted in 0-24 hr by dogs; NA is <10% inhibition at 1 uM for binding data; format: ADME, organism-based, Canis lupus familiaris; conditions: dog, in vivo
[2] = species on record: Rattus norvegicus; assay: Percent of radioactive dose in urine and feces excreted in 0-24 hr by rats; NA is <10% inhibition at 1 uM for binding data; format: ADME, organism-based; conditions: in vivo
[3] = molecular target: D(2) dopamine receptor (Rattus norvegicus, UniProt P61169); assay: In vitro ability to displace Dopamine D2 receptor binding to rat striatal membranes in competition experiments against 3H-spiperone, expressed as Ki; set-up: species or system Striatum, Membrane
Chain of D(2) dopamine receptor (P61169 whole entry): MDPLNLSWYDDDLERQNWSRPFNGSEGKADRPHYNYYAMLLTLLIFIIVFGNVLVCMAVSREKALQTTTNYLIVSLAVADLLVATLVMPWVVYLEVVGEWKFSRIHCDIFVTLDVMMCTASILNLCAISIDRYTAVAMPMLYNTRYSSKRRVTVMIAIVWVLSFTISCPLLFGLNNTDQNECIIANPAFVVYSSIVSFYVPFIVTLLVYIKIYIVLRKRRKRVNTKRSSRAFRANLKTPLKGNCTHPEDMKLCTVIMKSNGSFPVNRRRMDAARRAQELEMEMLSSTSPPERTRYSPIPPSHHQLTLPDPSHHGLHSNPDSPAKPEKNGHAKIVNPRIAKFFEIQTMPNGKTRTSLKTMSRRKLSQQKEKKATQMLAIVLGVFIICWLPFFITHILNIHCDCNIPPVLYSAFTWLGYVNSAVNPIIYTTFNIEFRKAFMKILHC

[4] = test system: Rattus norvegicus; assay: (§1) In vivo antipsychotic activity determined for dose ip by CAR (conditioned avoidance response) assay; format: functional; set-up: unit not given here
[5] = molecular target: T1, 5-hydroxytryptamine receptor 1A (Rattus norvegicus, UniProt P19327); assay: In vitro ability to displace serotonin 5-HT1A receptor binding to rat cerebral cortex in competition experiments against [3H]8-(hydroxy)dipropyl aminotetralin at 15 mg/kg concentration
T1 sequence (P19327 whole entry): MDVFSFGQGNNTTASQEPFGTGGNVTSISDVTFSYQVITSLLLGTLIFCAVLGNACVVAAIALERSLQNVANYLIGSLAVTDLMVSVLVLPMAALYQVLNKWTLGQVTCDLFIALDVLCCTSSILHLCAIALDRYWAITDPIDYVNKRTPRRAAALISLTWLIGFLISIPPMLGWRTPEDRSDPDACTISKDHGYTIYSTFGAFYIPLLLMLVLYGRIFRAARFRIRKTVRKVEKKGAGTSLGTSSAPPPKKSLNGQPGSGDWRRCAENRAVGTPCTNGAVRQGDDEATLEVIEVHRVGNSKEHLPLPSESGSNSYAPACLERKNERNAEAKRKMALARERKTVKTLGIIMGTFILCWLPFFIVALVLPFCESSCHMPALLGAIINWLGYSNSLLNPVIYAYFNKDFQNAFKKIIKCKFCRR

[6] = molecular target: T2, Adrenergic receptor alpha-1 (Rattus norvegicus, UniProt P15823+P23944+P43140); assay: In vitro ability to displace Alpha-1 adrenergic receptor binding to rat cerebral cortex in competition experiments against [3H]prazosin […], expressed as Ki.
T2 sequence (P15823 whole entry): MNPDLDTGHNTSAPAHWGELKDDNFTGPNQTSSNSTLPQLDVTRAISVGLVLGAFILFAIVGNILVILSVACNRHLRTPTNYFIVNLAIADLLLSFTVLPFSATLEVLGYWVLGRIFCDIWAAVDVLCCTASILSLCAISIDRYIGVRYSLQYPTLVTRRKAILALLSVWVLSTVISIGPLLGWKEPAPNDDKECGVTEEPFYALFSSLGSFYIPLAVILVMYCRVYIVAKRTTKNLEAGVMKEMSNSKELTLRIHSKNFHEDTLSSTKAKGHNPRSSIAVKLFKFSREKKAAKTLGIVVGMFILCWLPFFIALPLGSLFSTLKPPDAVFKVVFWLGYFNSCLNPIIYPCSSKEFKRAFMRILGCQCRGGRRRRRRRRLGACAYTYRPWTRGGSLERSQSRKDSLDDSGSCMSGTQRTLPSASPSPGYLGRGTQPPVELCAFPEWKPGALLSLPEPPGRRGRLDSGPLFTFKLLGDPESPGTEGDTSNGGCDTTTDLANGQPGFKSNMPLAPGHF
T2 sequence (P23944 whole entry): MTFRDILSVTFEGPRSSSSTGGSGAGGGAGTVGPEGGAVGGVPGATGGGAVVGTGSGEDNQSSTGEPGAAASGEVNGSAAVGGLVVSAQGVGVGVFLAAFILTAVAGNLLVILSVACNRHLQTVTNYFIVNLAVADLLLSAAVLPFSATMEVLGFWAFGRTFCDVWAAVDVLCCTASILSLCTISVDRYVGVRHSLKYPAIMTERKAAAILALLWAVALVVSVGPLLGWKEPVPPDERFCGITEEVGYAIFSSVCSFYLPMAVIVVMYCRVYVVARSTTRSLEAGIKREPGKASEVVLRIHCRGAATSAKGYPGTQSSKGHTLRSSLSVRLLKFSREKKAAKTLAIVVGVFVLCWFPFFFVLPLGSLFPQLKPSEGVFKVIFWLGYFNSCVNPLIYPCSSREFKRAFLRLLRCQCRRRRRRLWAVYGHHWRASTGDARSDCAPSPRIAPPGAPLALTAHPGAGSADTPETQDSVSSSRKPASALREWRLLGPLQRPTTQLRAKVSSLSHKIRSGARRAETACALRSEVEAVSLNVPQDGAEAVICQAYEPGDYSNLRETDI
T2 sequence (P43140 whole entry): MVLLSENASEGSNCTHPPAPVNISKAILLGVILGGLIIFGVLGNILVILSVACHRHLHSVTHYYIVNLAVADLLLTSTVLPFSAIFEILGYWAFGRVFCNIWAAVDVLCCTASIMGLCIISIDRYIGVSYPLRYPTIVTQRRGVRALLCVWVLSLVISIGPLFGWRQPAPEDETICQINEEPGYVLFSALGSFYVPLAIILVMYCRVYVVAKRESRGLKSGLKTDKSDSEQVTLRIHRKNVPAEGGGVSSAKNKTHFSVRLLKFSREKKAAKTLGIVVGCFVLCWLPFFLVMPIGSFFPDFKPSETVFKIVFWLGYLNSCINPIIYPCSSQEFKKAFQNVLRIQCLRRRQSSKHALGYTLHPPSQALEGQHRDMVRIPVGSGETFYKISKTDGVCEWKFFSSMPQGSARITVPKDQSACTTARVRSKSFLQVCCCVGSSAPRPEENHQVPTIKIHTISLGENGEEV

[7] = species on record: Canis familiaris; assay: Percent of radioactive dose in urine and feces excreted by 0-24 hr in dogs; NA is <10% inhibition at 1 uM for binding data; format: ADME, organism-based, Canis lupus familiaris; conditions: dog, in vivo
[8] = species on record: Canis familiaris; assay: Percent of radioactive dose in urine and feces excreted by 0-24 hr in dogs; format: ADME, organism-based, Canis lupus familiaris; conditions: dog, in vivo
[9] = species on record: Rattus norvegicus; assay: Percent of radioactive dose in urine and feces excreted in 0-24 hr by rats; format: ADME, organism-based; conditions: in vivo
[10] = molecular target: D(2) dopamine receptor (Rattus norvegicus) (UniProt P61169); assay: In vitro ability to displace Dopamine D2 receptor binding to rat striatal membranes in competition experiments against [3H]spiperone at 1 uM concentration; conditions: Striatum, Membrane
Chain of D(2) dopamine receptor (Rattus norvegicus) (P61169 whole entry): as the sequence (P61169 whole entry) above

[11] = molecular target: T3, 5-hydroxytryptamine receptor 1A (Rattus norvegicus) (UniProt P19327); assay: In vitro ability to displace serotonin 5-HT1A receptor binding to rat cerebral cortex in competition experiments against [3H]8-(hydroxy)dipropyl aminotetralin at 1 uM concentration; format: tissue-based
T3 sequence (whole entry): T1 sequence (P19327 whole entry)

[12] = molecular target: Adrenergic receptor alpha-1 (Rattus norvegicus) (UniProt P15823+P23944+P43140); assay: In vitro ability to displace Alpha-1 adrenergic receptor binding to rat cerebral cortex in competition experiments against [3H]prazosin at 1 µM, expressed as % inhibition.
[13] = molecular target: T1, 5-hydroxytryptamine receptor 1A; assay: In vitro ability to displace serotonin 5-HT1A receptor binding to rat cerebral cortex in competition experiments against [3H]8-(hydroxy)dipropyl aminotetralin at 1 mg/kg concentration
[14] = molecular target: T2, Adrenergic receptor alpha-1; assay: In vitro ability to displace Alpha-1 adrenergic receptor binding to rat cerebral cortex in competition experiments against [3H]-prazosin, expressed as Ki.
[15] = species on record: Canis familiaris; assay: Percent of radioactive dose in urine and faeces excreted in 0-24 hr by dogs; format: ADME, organism-based, Canis lupus familiaris, Urine/Feces; conditions: dog, in vivo
[16] = species on record: Rattus norvegicus; assay: Percent of radioactive dose in urine and faeces excreted in 0-24 hr by rats; format: ADME, organism-based, Urine/Feces; conditions: in vivo
[17] = test system: Rattus norvegicus; assay: as §1; format: functional

Dose [2]	Ki [3]	Ki [5]	Ki [6]	Dose [8]	Dose [9]	SMILES	CAR [4]	also measured
< 2%	9 nM	3 nM	4 nM			CC(C)Oc1ccccc1N1CCN(Cc2cccc(C(=O)N3CCCCC3O)c2)CC1 (stereo not given)	-64	Dose [1]: < 2%
< 2%	8.8 nM	6.8 nM	21 nM			CC(C)Oc1ccccc1N1CCN(Cc2cccc(C(=O)N3CCCC(O)C3)c2)CC1 (stereo not given)	-96	Dose [7]: < 2%
	11 nM			3%	3%	CC(C)Oc1ccccc1N1CCN(Cc2cccc(C(=O)N3CCC(O)CC3)c2)CC1	-76	Ki [13]: 7.8 nM; Ki [14]: 3.6 nM

Further lines, the compound ahead of its results:

SMILES	Dose [2]	Ki [3]	Ki [5]	Ki [6]	Dose [8]	Dose [9]	CAR [4]	also measured
O=C(O)c1cccc(C(=O)N2CCCCC2)c1					8%	11%	-3	inhibition [10]: < 10%; inhibition [11]: < 10%; inhibition [12]: < 10%
CC(C)Oc1ccccc1N1CCN(Cc2cccc(C(=O)N3CCCCC3)c2)CC1 [MAZAPERTINE]								Dose [15]: 5%; Dose [16]: 4%; CAR [17]: -92
CC(C)Oc1cc(O)ccc1N1CCN(Cc2cccc(C(=O)N3CCCCC3)c2)CC1					3%	13%	-10	
